Activity calls are given as the source filed them. The rule behind the calls is not given here.
Assays:
[1] = Cmax in Sprague-Dawley rat at 60 mg/kg,po measured at 0.25 to 24 hrs post administration by LC-MS/MS analysis; assay type: ADME, organism-based; design: dose 60 mg/kg, time upper 24 hrs, time lower 0.25 hrs, route po; conditions: in vivo
PC-12 [2] = assay: Neuroprotective activity against amyloid beta (25 to 35)-induced rat PC12 cells assessed as decrease in COX-2 expression level at 7.5 to 30 uM preincubated for 30 mins followed by amyloid beta (25 to 35) addition and measured after 24 hrs by western blot assay; assay type: functional, cell-based; conditions: dose 7.5-30 µM, time 24.5 hrs
Mus musculus [3] = assay: Antialzheimer activity against amyloid beta (25 to 35)-induced cognitive deficit ICR mouse model assessed as increase in preferential index at 25 mg/kg,po observed after 24 hrs of administration by novel object recognition test; assay type: functional, organism-based
[4] = MRT (0 to t) in Sprague-Dawley rat at 60 mg/kg,po measured at 0.25 to 24 hrs post administration by LC-MS/MS analysis; assay type: ADME, organism-based; conditions: in vivo, time 0.25-24 hrs
[5] = AUC (0-infinity) in Sprague-Dawley rat at 10 mg/kg,iv measured at 0.083 to 24 hrs post administration by LC-MS/MS analysis; assay type: ADME, organism-based; design: dose 10 mg/kg, time 0.083-24 hrs, route iv; conditions: in vivo
Mus musculus [6] = assay: Antialzheimer activity against amyloid beta (25 to 35)-induced cognitive deficit ICR mouse model assessed as increase in discrimination index at 25 mg/kg,po observed after 1 hr of administration by novel object recognition test; assay type: functional, organism-based
PC-12 [7] = assay: Neuroprotective activity against amyloid beta (25 to 35)-induced rat PC12 cells assessed as decrease in JNK expression level at 7.5 to 30 uM preincubated for 30 mins followed by amyloid beta (25 to 35) addition and measured after 24 hrs by western blot assay; assay type: functional, cell-based; conditions: dose 7.5-30 µM, time 24.5 hrs
PC-12 [8] = assay: Neuroprotective activity against amyloid beta (25 to 35)-induced rat PC12 cells assessed as decrease in total tau protein expression level at 7.5 to 30 uM preincubated for 30 mins followed by amyloid beta (25 to 35) addition and measured after 24 hrs by western blot assay; assay type: functional, cell-based; conditions: dose 7.5-30 µM, time 24.5 hrs
Mus musculus [9] = assay: Antialzheimer activity against amyloid beta (25 to 35)-induced cognitive deficit ICR mouse model assessed as increase in discrimination index at 25 mg/kg,po observed after 24 hrs of administration by novel object recognition test; assay type: functional, organism-based
PC-12 [10] = assay: Neuroprotective activity against amyloid beta (25 to 35)-induced rat PC12 cells assessed as decrease in NF-kappaB expression level at 7.5 to 30 uM preincubated for 30 mins followed by amyloid beta (25 to 35) addition and measured after 24 hrs by western blot assay; assay type: functional, cell-based; conditions: dose 7.5-30 µM, time 24.5 hrs
[11] = Toxicity in ICR mouse assessed as pathological changes in spleen at 12.5 to 50 mg/kg,po administrated for 20 days by hematoxylin and eosin staining based microscopic analysis; assay type: organism-based; conditions: in vivo, 480 h, dose 12.5-50 mg/kg, time 20 day
Mus musculus [12] = assay: Antialzheimer activity against amyloid beta (25 to 35)-induced spatial memory deficit ICR mouse model assessed as increase in distance travelled in target quadrant at 50 mg/kg,po observed at 16 to 20 days of administration by morris water maze test; assay type: functional, organism-based; conditions: time 16-20 day
Mus musculus [13] = assay: Antialzheimer activity against amyloid beta (25 to 35)-induced cognitive deficit ICR mouse model assessed as increase in preferential index at 50 mg/kg,po observed after 1 hr of administration by novel object recognition test; assay type: functional, organism-based
PC-12 [14] = assay: Neuroprotective activity against amyloid beta (25 to 35)-induced rat PC12 cells assessed as decrease in TNF-alpha expression level at 7.5 to 30 uM preincubated for 30 mins followed by amyloid beta (25 to 35) addition and measured after 24 hrs by western blot assay; assay type: functional, cell-based; conditions: dose 7.5-30 µM, time 24.5 hrs
[15] = Half life in Sprague-Dawley rat at 60 mg/kg,po measured at 0.25 to 24 hrs post administration by LC-MS/MS analysis; assay type: ADME, organism-based; conditions: in vivo, time 0.25-24 hrs
PC-12 [16] = assay: Neuroprotective activity against rat PC12 cells assessed as reduction in amyloid beta (25 to 35)-induced cytotoxicity at 15 uM incubated for 4 hrs followed by amyloid beta (25 to 35) treatment for 24 hrs by MTT assay relative to control; assay type: functional; design: scale not given: the % may be the effect or the level left; conditions: time 28 hrs
HepG2 = assay: Cytotoxicity against human HepG2 cells assessed as decrease in cell viability at 120 uM incubated for 24 hrs by MTT assay; assay type: toxicity, cell-based; conditions: hepg2, 24 h
[17] = Cytotoxicity against mouse Neuro2a cells assessed as cell viability at 120 uM incubated for 24 hrs by MTT assay; assay type: toxicity, cell-based; conditions: Neuro2a (N2a) cells, read-out: Activity
Mus musculus [18] = assay: Antialzheimer activity against amyloid beta (25 to 35)-induced brain injury ICR mouse model assessed as attenuation of pathological change in hippocampal CA3 region at 12.5 to 50 mg/kg,po administrated for 21 days by hematoxylin and eosin staining based microscopic analysis; assay type: functional, organism-based; conditions: dose 12.5-50 mg/kg, time 21.0 day
[19] = Toxicity in ICR mouse assessed as pathological changes in heart at 12.5 to 50 mg/kg,po administrated for 20 days by hematoxylin and eosin staining based microscopic analysis; assay type: organism-based; conditions: in vivo, 480 h, dose 12.5-50 mg/kg, time 20 day
PC-12 [20] = assay: Neuroprotective activity against amyloid beta (25 to 35)-induced rat PC12 cells assessed as decrease in tau hyperphosphorylation at Thr181 at 7.5 to 30 uM preincubated for 30 mins followed by amyloid beta (25 to 35) addition and measured after 24 hrs by western blot assay; assay type: functional, cell-based; conditions: dose 7.5-30 µM, time 24.5 hrs
PC-12 [21] = assay: Cytotoxicity against rat PC12 cells assessed as effect on survival at < 60 uM incubated for 24 hrs by MTT assay; assay type: toxicity, cell-based; conditions: pc-12, 24 h
PC-12 [22] = assay: Neuroprotective activity against amyloid beta (25 to 35)-induced rat PC12 cells assessed as decrease in NF-kappaB phosphorylation level at 7.5 to 30 uM preincubated for 30 mins followed by amyloid beta (25 to 35) addition and measured after 24 hrs by western blot assay; assay type: functional, cell-based; conditions: dose 7.5-30 µM, time 24.5 hrs
[23] = Cytotoxicity against human HepG2 cells assessed as cell viability at 120 uM incubated for 24 hrs by MTT assay; assay type: toxicity, cell-based; conditions: read-out: Activity
PC-12 [24] = assay: Neuroprotective activity against amyloid beta (25 to 35)-induced rat PC12 cells assessed as decrease in p38 phosphorylation level at 7.5 to 30 uM preincubated for 30 mins followed by amyloid beta (25 to 35) addition and measured after 24 hrs by western blot assay; assay type: functional, cell-based; conditions: dose 7.5-30 µM, time 24.5 hrs
PC-12 [25] = assay: Neuroprotective activity against rat PC12 cells assessed as reduction in amyloid beta (25 to 35)-induced cytotoxicity incubated for 4 hrs followed by amyloid beta (25 to 35) treatment for 24 hrs by MTT assay; assay type: functional, cell-based
[26] = Clearance in Sprague-Dawley rat at 10 mg/kg,iv measured at 0.083 to 24 hrs post administration by LC-MS/MS analysis; assay type: ADME, organism-based; conditions: in vivo, time 0.083-24 hrs
PC-12 [27] = assay: Cytotoxicity against rat PC12 cells assessed as decrease in cell viability at 120 uM incubated for 24 hrs by MTT assay; assay type: toxicity, cell-based; conditions: pc-12, 24 h
Mus musculus [28] = assay: Antialzheimer activity against amyloid beta (25 to 35)-induced cognitive deficit ICR mouse model assessed as attenuation of behavioral deficit at 50 mg/kg,po observed after 12 to 15 days of administration by Y maze test; assay type: functional, organism-based; conditions: time 12-15 day
[29] = AUC (0-infinity) in Sprague-Dawley rat at 60 mg/kg,po measured at 0.25 to 24 hrs post administration by LC-MS/MS analysis; assay type: ADME, organism-based; design: dose 60 mg/kg, time 0.25-24 hrs, route po; conditions: in vivo

Cmax [1]: 220 ng/mL | MRT last [4]: 2.24 h | AUC(0-inf) [5]: 40700 ng·h/mL | half-life [15]: 0.817 h | clearance [26]: 4.29 mL/min/kg | AUC(0-inf) [29]: 326 ng·h/mL
SMILES: CC1(C)CCC[C@](C)([C@H]2CC[C@]3(C)[C@@H]2[C@H](O)C[C@@H]2[C@@]4(C)CC[C@H](OC(=O)NCc5ccccc5)C(C)(C)[C@@H]4CC[C@]23C)O1
Activity (PC-12 [2]): Active | Activity (Mus musculus [3]): Active | Activity (Mus musculus [6]): inactive | Activity (PC-12 [7]): Active | Activity (PC-12 [8]): Active | Activity (Mus musculus [9]): Active | Activity (PC-12 [10]): Active | Activity [11]: Non-Toxic | Activity (Mus musculus [12]): Active | Activity (Mus musculus [13]): inactive | Activity (PC-12 [14]): Active | Activity (PC-12 [16]): 73.01% | Activity (HepG2): Toxic | viability at 24 h, 120 µM [17]: > 50% | Activity (Mus musculus [18]): Active | Activity [19]: Non-Toxic | Activity (PC-12 [20]): Active | Activity (PC-12 [21]): Non-Toxic | Activity (PC-12 [22]): Active | viability at 24 h, 120 µM [23]: > 50% | Activity (PC-12 [24]): Active | EC50 (PC-12 [25]): 13.2 µM | Activity (PC-12 [27]): Toxic | Activity (Mus musculus [28]): Active
